Measured values: patent publication US20090285773A1, “Hepatitis C Virus Inhibitors” (Bristol-Myers Squibb Company, priority 2008, published 2009)

Assays:
Format in all cases: biochemical
[1] = test system: human pancreatic chymotrypsin; assay: Specificity assay, chymotrypsin; details: read-out: Chymotrypsin activity in the specificity assays
Procedure: (§1) The specificities of compounds of the present disclosure were determined against a variety of serine proteases: human neutrophil elastase (HNE), porcine pancreatic elastase (PPE) and human pancreatic chymotrypsin and one cysteine protease: human liver cathepsin B. In all cases a 96-well plate format protocol using a fluorometric Amino-Methyl-Coumarin (AMC) substrate specific for each enzyme was used as described previously (PCT Patent Application No. WO 00/09543) with some modifications to the serine protease assays. All enzymes were purchased from Sigma, EMDbiosciences while the substrates were from Bachem, Sigma and EMDbiosciences.
(§2) Compound concentrations varied from 100 to 0.4 μM depending on their potency. The enzyme assays were each initiated by addition of substrate to enzyme-inhibitor pre-incubated for 10 min at room temperature and hydrolysis to 15% conversion as measured on cytofluor. […]
(§3) The percentage of inhibition was calculated using the formula: […]

human liver cathepsin B = molecular target: T1, human liver cathepsin B (Homo sapiens, UniProt P07858); assay: Specificity assay, cathepsin B; details: read-out: Cathepsin B activity in the specificity assays
T1 construct: host or cells: human liver
Procedure: as §1, §2, §3

[2] = molecular target: T2, HCV NS3/4A protease complex, H77 strain (1a genotype) (Hepatitis C virus genotype 1a, UniProt P27958, C1454S/C1711G); assay: FRET peptide assay, HCV NS3/4A protease complex, H77 strain
T2 construct: DNA encoding the recombinant HCV NS3/4A protease complex (amino acids 1027 to 1711) for these strains; His tag (inferred from pET21b vector and Ni-NTA purification); made in house; host or cells: Escherichia coli BL21 (DE3)
T2 sequence (P27958 1027-1711 C1454S/C1711G, one chain of several): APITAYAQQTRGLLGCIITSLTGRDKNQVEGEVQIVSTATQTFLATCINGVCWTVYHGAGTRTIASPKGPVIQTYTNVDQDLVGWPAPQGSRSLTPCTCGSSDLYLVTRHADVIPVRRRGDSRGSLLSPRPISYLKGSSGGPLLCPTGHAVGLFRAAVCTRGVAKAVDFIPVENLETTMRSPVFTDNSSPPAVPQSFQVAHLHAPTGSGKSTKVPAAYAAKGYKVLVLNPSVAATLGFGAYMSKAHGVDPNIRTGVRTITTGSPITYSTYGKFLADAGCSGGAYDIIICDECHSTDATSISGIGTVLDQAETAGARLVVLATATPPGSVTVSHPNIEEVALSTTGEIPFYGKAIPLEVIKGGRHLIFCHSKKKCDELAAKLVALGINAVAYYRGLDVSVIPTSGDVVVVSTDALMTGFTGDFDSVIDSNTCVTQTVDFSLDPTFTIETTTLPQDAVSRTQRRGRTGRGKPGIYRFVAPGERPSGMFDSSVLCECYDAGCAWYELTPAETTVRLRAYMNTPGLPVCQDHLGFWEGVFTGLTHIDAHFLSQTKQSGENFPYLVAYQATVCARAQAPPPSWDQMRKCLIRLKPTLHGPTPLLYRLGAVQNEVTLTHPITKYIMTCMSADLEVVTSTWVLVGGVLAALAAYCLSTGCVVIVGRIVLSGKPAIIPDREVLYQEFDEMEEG
Text: HCV NS3 protease complexes, derived from the BMS strain, H77 strain or J4L6S strain, were generated, as described below. These purified recombinant proteins were generated for use in a homogeneous assay (see below) to provide an indication of how effective compounds of the present disclosure would be in inhibiting HCV NS3 proteolytic activity.
Serum from an HCV-infected patient was obtained from Dr. T. Wright, San Francisco Hospital. An engineered full-length cDNA (compliment deoxyribonucleic acid) template of the HCV genome (BMS strain) was constructed from DNA fragments obtained by reverse transcription-PCR (RT-PCR) of serum RNA (ribonucleic acid) and using primers selected on the basis of homology between other genotype 1a strains. From the determination of the entire genome sequence, a genotype 1a was assigned to the HCV isolate according to the classification of Simmonds et al. (See P Simmonds, K A Rose, S Graham, S W Chan, F McOmish, B C Dow, E A Follett, P L Yap and H Marsden, J. Clin. Microbiol., 31(6), 1493-1503 (1993)). […]

[3] = molecular target: porcine pancreatic elastase (PPE) (Sus scrofa, UniProt P00772); assay: Specificity assay, porcine pancreatic elastase; details: read-out: PPE activity in the specificity assays
Sequence of porcine pancreatic elastase (PPE) (P00772 27-266): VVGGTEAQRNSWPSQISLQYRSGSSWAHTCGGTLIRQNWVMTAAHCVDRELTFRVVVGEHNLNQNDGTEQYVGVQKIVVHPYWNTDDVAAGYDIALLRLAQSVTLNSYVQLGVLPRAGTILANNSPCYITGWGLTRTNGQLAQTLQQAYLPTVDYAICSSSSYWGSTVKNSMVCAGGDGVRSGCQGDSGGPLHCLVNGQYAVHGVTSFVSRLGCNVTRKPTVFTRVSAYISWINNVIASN
Procedure: as §1, §2, §3

COc1ccc2c(O[C@@H]3C[C@H]4C(=O)N[C@]5(C(=O)NS(=O)(=O)C6CC6)C[C@H]5/C=C\CCCCC[C@H](Nc5ccc(OC)nc5)C(=O)N4C3)nccc2c1 (single isomer, unassigned) [Compound 1]
IC50 [1]: 25 µM
IC50 (human liver cathepsin B): > 25 µM
IC50 [2]: 0.0019 µM
IC50 [3]: > 25 µM
